Experimental data as given in patent US8450313B2, “2,3-diaryl- or heteroaryl-substituted 1,1,1-trifluoro-2-hydroxypropyl compounds” (Hoffmann-La Roche Inc., priority 2009, dated 2013).

Molecular target: T1, full length human recombinant glucocorticoid receptor (Homo sapiens, UniProt P04150)
T1 construct: It contains some partially purified full length human recombinant glucocorticoid receptor; purchased Panvera/Invitrogen PV4302
T1 sequence (P04150 1-777): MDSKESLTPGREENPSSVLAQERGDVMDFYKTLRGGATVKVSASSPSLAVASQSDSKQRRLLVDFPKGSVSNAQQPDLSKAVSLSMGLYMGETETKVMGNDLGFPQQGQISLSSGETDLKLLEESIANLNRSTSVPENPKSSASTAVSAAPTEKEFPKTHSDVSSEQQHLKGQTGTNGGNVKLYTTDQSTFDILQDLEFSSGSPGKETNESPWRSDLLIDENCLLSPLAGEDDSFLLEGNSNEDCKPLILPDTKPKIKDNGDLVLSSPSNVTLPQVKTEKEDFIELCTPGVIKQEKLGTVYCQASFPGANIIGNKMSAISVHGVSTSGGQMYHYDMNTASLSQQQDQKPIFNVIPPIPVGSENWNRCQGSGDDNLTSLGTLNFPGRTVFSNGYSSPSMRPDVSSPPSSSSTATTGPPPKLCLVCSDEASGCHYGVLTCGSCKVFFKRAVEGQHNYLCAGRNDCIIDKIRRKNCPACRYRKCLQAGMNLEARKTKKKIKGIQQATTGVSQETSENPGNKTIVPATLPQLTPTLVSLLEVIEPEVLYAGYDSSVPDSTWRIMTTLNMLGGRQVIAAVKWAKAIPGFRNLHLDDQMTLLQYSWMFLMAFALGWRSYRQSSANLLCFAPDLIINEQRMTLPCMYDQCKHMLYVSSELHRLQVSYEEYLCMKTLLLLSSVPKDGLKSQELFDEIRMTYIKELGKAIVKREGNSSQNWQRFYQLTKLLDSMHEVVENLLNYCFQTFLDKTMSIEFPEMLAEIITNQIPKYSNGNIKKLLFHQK
Test: Glucocorticoid Receptor Binding Assay (Glucocorticoid Receptor Competitor Assay far red kit, fluorescence polarization)
Conditions: competition with fluorescent GR ligand Fluormone GS Far Red, 3 hours at 22° C., pH 7.4; Ki calculated from IC50 by Cheng-Prusoff
In short: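 Compounds in serial dilution (from intermediate 4.2% DMSO stock) displace Fluormone GS Far Red from full-length human recombinant GR with stabilizing peptide, pH 7.4, incubated 3 hours at 22° C dark. Polarized fluorescence (610–660 nm) gives IC50 via sigmoidal fit, converted to Ki by Cheng-Prusoff.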

Row | Ki | Structure (SMILES)
1 | 2 nM | C[C@@H](c1cc(OCc2ccc(C(=O)O)cc2)ccc1Cl)[C@](O)(c1ccc2c(c1)N(C)C(=O)CO2)C(F)(F)F (relative stereo) [Example 2, 4-{4-Chloro-3-[3,3,3-trifluoro-2-hydroxy-1-methyl-2-(4-methyl-3-oxo-3,4-dihydro-2H-benzo[1,4]oxazin-6-yl)-propyl]-phenoxymethyl}-benzoic acid]
2 | 281 nM | C[C@H](c1ccc(-c2ccc(C(=O)O)c(F)c2)cc1Cl)[C@@](O)(c1cccc2c1OCC(=O)N2C)C(F)(F)F (stereo in doubt) [Example 54, 3′-Chloro-3-fluoro-4′-[3,3,3-trifluoro-2-hydroxy-1-methyl-2-(4-methyl-3-oxo-3,4-dihydro-2H-benzo[1,4]oxazin-8-yl)-propyl]-biphenyl-4-carboxylic acid]
3 | 1.7 nM | COC(=O)c1ccc(Oc2ccc([C@H](C)[C@](O)(c3cc(C)c(C#N)c(C)c3)C(F)(F)F)c(Cl)c2)cc1Cl (stereo in doubt) [Example 143, 2-Chloro-4-{3-chloro-4-[2-(4-cyano-3,5-dimethyl-phenyl)-3,3,3-trifluoro-2-hydroxy-1-methyl-propyl]-phenoxy}-benzoic acid methyl ester]
4 | 3 nM | COC(=O)c1cnc(Oc2ccc([C@@H](C)[C@@](O)(c3ccc4oc(=O)n(C)c4c3)C(F)(F)F)c(Cl)c2)cc1Cl (relative stereo) [Example 183, 4-Chloro-6-{3-chloro-4-[3,3,3-trifluoro-2-hydroxy-1-methyl-2-(3-methyl-2-oxo-2,3-dihydro-benzooxazol-5-yl)-propyl]-phenoxy}-nicotinic acid methyl ester]
5 | 6.6 nM | C[C@@H](c1ccc(-c2ccc(CC(=O)O)cc2)cc1Cl)[C@](O)(c1ccc2c(c1)N(C)C(=O)CO2)C(F)(F)F (relative stereo) [Example 37, {3′-Chloro-4′-[3,3,3-trifluoro-2-hydroxy-1-methyl-2-(4-methyl-3-oxo-3,4-dihydro-2H-benzo[1,4]oxazin-6-yl)-propyl]-biphenyl-4-yl}-acetic acid]
6 | 10.8 nM | C[C@@H](c1ccc(-c2ccc(F)c(C(=O)O)c2)cc1Cl)[C@](O)(c1ccc2c(c1)N(C)S(=O)(=O)N2C)C(F)(F)F (relative stereo) [Example 162, 3′Chloro-4′-[2-(1,3-dimethyl-2,2-dioxo-2,3-dihydro-1H-2λ6-benzo[1,2,5]thiadiazol-5-yl)-3,3,3-trifluoro-2-hydroxy-1-methyl-propyl]-4-fluoro-biphenyl-3-carboxylic acid]
7 | 26.4 nM | C[C@H](c1ccc(Oc2ccc(C(F)(F)F)c(C(=O)O)n2)cc1Cl)[C@@](O)(c1ccc2c(c1)n(C)c(=O)n2C)C(F)(F)F (stereo in doubt) [Example 112, 6-{3-Chloro-4-[2-(1,3-dimethyl-2-oxo-2,3-dihydro-1H-benzoimidazol-5-yl)-3,3,3-trifluoro-2-hydroxy-1-methyl-propyl]-phenoxy}-3-trifluoromethyl-pyridine-2-carboxylic acid]
8 | 2.7 nM | C[C@@H](c1ccc(Oc2ccc(C(=O)O)c(Cl)c2)cc1Cl)[C@](O)(c1cc2c(cc1F)OCC(=O)N2C)C(F)(F)F (stereo in doubt) [Example 139, 2-Chloro-4-{3-chloro-4-[3,3,3-trifluoro-2-(7-fluoro-4-methyl-3-oxo-3,4-dihydro-2H-benzo[1,4]oxazin-6-yl)-2-hydroxy-1-methyl-propyl]-phenoxy}-benzoic acid]
9 | 59.8 nM | CCN1C(=O)COc2ccc([C@](O)([C@H](C)c3ccc(Oc4cc(C(F)(F)F)c(C(=O)O)cn4)cc3Cl)C(F)(F)F)cc21 (relative stereo) [Example 68, 6-{3-Chloro-4-[2-(4-ethyl-3-oxo-3,4-dihydro-2H-benzo[1,4]oxazin-6-yl)-3,3,3-trifluoro-2-hydroxy-1-methyl-propyl]-phenoxy}-4-trifluoromethyl-nicotinic acid]
10 | 354 nM | C[C@H](c1ccc(-c2ccc(C(=O)O)c(F)c2)cc1Cl)[C@@](O)(c1ccc2[nH]c(=O)[nH]c2c1)C(F)(F)F (relative stereo) [Example 114, 3′-Chloro-3-fluoro-4′-[3,3,3-trifluoro-2-hydroxy-1-methyl-2-(2-oxo-2,3-dihydro-1H-benzoimidazol-5-yl)-propyl]-biphenyl-4-carboxylic acid]
11 | 4.8 nM | C[C@@H](c1cc(Oc2cccc(C(=O)O)c2)ccc1Cl)[C@](O)(c1ccc2c(c1)N(C)C(=O)CO2)C(F)(F)F (stereo in doubt) [Example 6, 3-{4-Chloro-3-[3,3,3-trifluoro-2-hydroxy-1-methyl-2-(4-methyl-3-oxo-3,4-dihydro-2H-benzo[1,4]oxazin-6-yl)-propyl]-phenoxy}-benzoic acid]
12 | 0.3 nM | C[C@@H](c1ccc(-c2ccc(C(=O)O)c(F)c2)cc1Cl)[C@](O)(c1ccc2oc(=O)n(C)c2c1)C(F)(F)F [Example 119, 3′-Chloro-3-fluoro-4′-[(1S,2S)-3,3,3-trifluoro-2-hydroxy-1-methyl-2-(3-methyl-2-oxo-2,3-dihydro-benzooxazol-5-yl)-propyl]-biphenyl-4-carboxylic acid]
13 | 1 nM | C[C@H](c1ccc(Oc2cccc(C(=O)O)c2)cc1Cl)[C@@](O)(c1ccc2c(c1)N(C)C(=O)CO2)C(F)(F)F (racemic) [Example 61, 3-{3-Chloro-4-[3,3,3-trifluoro-2-hydroxy-1-methyl-2-(4-methyl-3-oxo-3,4-dihydro-2H-benzo[1,4]oxazin-6-yl)-propyl]-phenoxy}-benzoic acid]
14 | 0.8 nM | C[C@@H](c1ccc(Oc2ncc(C(=O)O)cc2Cl)cc1Cl)[C@](O)(c1ccc2c(c1)N(C)C(=O)CO2)C(F)(F)F [Example 224, 5-Chloro-6-{3-chloro-4-[(1S,2S)-3,3,3-trifluoro-2-hydroxy-1-methyl-2-(4-methyl-3-oxo-3,4-dihydro-2H-benzo[1,4]oxazin-6-yl)-propyl]-phenoxy}-nicotinic acid]
15 | 0.5 nM | C[C@@H](c1ccc(Oc2cc(C(F)(F)F)c(C(=O)O)cn2)cc1Cl)[C@](O)(c1ccc2c(c1)n(C)c(=O)n2C)C(F)(F)F (relative stereo) [Example 102, 6-{3-Chloro-4-[2-(1,3-dimethyl-2-oxo-2,3-dihydro-1H-benzoimidazol-5-yl)-3,3,3-trifluoro-2-hydroxy-1-methyl-propyl]-phenoxy}-4-trifluoromethyl-nicotinic acid]
16 | 3 nM | C[C@H](c1ccc(-c2cccc(C(=O)O)n2)cc1Cl)[C@@](O)(c1ccc2oc(=O)n(C)c2c1)C(F)(F)F (relative stereo) [Example 190, 6-{3-Chloro-4-[3,3,3-trifluoro-2-hydroxy-1-methyl-2-(3-methyl-2-oxo-2,3-dihydro-benzooxazol-5-yl)-propyl]-phenyl}-pyridine-2-carboxylic acid]
17 | 46 nM | C[C@H](c1ccc(-c2ccc(C(=O)O)c(F)c2)cc1Cl)[C@@](O)(c1ccc2oc(=O)n(C)c2c1)C(F)(F)F [Example 120, 3′-Chloro-3-fluoro-4′-[(1R,2R)-3,3,3-trifluoro-2-hydroxy-1-methyl-2-(3-methyl-2-oxo-2,3-dihydro-benzooxazol-5-yl)-propyl]-biphenyl-4-carboxylic acid]
18 | 426 nM | C[C@@H](c1cc(OCC(=O)O)ccc1Cl)[C@](O)(c1ccc2c(c1)N(C)C(=O)CO2)C(F)(F)F (relative stereo) [Example 4, {4-Chloro-3-[3,3,3-trifluoro-2-hydroxy-1-methyl-2-(4-methyl-3-oxo-3,4-dihydro-2H-benzo[1,4]oxazin-6-yl)-propyl]-phenoxy}-acetic acid]
19 | 97.9 nM | CCN1C(=O)COc2ccc([C@](O)([C@H](C)c3ccc(-c4ccc(C(=O)O)c(Cl)c4)cc3Cl)C(F)(F)F)cc21 (racemic) [Example 64, 3,3′-Dichloro-4′-[2-(4-ethyl-3-oxo-3,4-dihydro-2H-benzo[1,4]oxazin-6-yl)-3,3,3-trifluoro-2-hydroxy-1-methyl-propyl]-biphenyl-4-carboxylic acid]
20 | 0.7 nM | C[C@H](c1ccc(Oc2cc(Cl)c(C(=O)O)cn2)cc1Cl)[C@@](O)(c1ccc2oc(=O)n(C)c2c1)C(F)(F)F (relative stereo) [Example 185, 4-Chloro-6-{3-chloro-4-[3,3,3-trifluoro-2-hydroxy-1-methyl-2-(3-methyl-2-oxo-2,3-dihydro-benzooxazol-5-yl)-propyl]-phenoxy}-nicotinic acid]
21 | 1.4 nM | COC(=O)c1cncc(-c2ccc([C@@H](C)[C@@](O)(c3ccc4oc(=O)n(C)c4c3)C(F)(F)F)c(Cl)c2)c1 (relative stereo) [Example 186, 5-{3-Chloro-4-[3,3,3-trifluoro-2-hydroxy-1-methyl-2-(3-methyl-2-oxo-2,3-dihydro-benzooxazol-5-yl)-propyl]-phenyl}-nicotinic acid methyl ester]
